What all share (format): cell-based, human
The subject of assay [1] is POLβ KO A2780cis cells. Description: Clonogenic assay, POLβ KO A2780cis. Conditions: vs POLβ proficient A2780cis. The procedure:
Clonogenic assay: In the clonogenic assay (colony formation assays), 32 cells/cm2 were seeded in 6-well plates and left at 37°C in a 5% CO2 atmosphere. Cisplatin (5µM) and/or FEN1i (10µM) and/or Importazole (5 µM, Selleckem, S8446 ) were added at the indicated concentrations and the plates were left at 37 °C in a 5% CO 2 atmosphere for 14 days. Later, the plates were washed with PBS, fixed and stained with a crystal violet, acetic acid and methanol solution and colonies were counted. […]

The next assay deals with A2780cis cells. Description: Neutral COMET assay, A2780cis. Conditions: combination with cisplatin vs cisplatin or FEN1i monotherapy. The procedure:
(1:200, ab26343). Infrared dye-labelled secondary antibodies (Li-Cor) [IRDye 800CW Donkey Anti-Rabbit IgG and IRDye 680CW Donkey Anti-Mouse IgG] were incubated at a dilution of 1:10000 for 1 h. Membranes were scanned with a LiCor Odyssey machine (700 and 800 nm) to determine protein expression. ß-Tubulin or ß-actin was used as a loading controls for the whole cell lysates. GADPH and YYI were used as loading controls to cytoplasmic and nuclear fractions, respectively. First incubation was with FEN1 antibody and then imaged. This was followed by incubation with loading control and then imaged for analysis. Bar charts show means of optical density (O.D.) ± S.D and all data is representative of at least three independent experiments. qRT-PCR analysis of FEN1 gene expre ssion: RNA was extracted using the RNeasy Mini Kit (74104, Qiagen) and quantified using a Nanodrop 2000c (Thermo Fisher Scientific). cDNA synthesis was performed using the RT2 First Strand Kit (330404, Qiagen). Real time PCR was carried out on an Applied Biosystems […] FAST cycler.
Neutral COMET assay: 1.0x10^5 cells per well were seeded in 6 well tissue culture plates and incubated at 37°C and 5% CO2 overnight. […] Fifty comets were scored per sample using Comet Assay III/IV image analysis software (Perceptive Instruments, Bury St Edmonds, UK). […]

The subject of assay [2] is POLβ KO A2780cis cells. In words: Annexin V apoptosis detection, POLβ KO A2780cis. Conditions: FEN1i-treated. The procedure:
Apoptosis detection: Annexin V detection kit (556547, BD Biosciences) was used to quantify apoptotic cells. Briefly, cells were trypsinized, washed with PBS and the cellular pellet was re-suspended in Anexin Binding Buffer (1×). Following, FITC Anexin V and Propidium Iodide were added to the cells. After incubation, Anexin binding Buffer (1×) was added to each tube. All the samples were analysed on a Beckman-Coulter FC500 flow cytometer. The percentage of apoptotic cells was determined (late apoptotic = FITC-Annexin V positive, PI positive early apoptotic = FITC-Annexin V positive, PI negative; live cells = FITC-Annexin V negative, PI negative) and compared for untreated and treated samples. Graphical representation and statistical analysis was performed in GraphPad Prism 7 (GraphPad, La Jolla, USA).
3D Spheroid assays: A2780_control and A2780 FEN1_ KO as well as A2780cis_control and A2780cis FEN1_ KO cells were seeded at 4500 cells/cm2 density in ultra-low attachment 6-well plates (174932, Thermo Fisher Scientific) and cultured in 3D Tumorsphere Medium (C28070, PromoCell, UK) at 37°C in a 5% CO2 atmosphere. Cells were keep in culture for 7-10 days, toping up with fresh medium every two days until spheroids structures were formed.

The test system of assay [3] is FEN1 nuclear level in A2780 cells. In words: Nuclear extract western blot for FEN1, A2780. Conditions: 5 µM cisplatin, 24 h. The procedure: Clonogenic assay: In the clonogenic assay (colony formation assays), 32 cells/cm2 were seeded in 6-well plates and left at 37°C in a 5% CO2 atmosphere. Cisplatin (5µM) and/or FEN1i (10µM) and/or Importazole (5 µM, Selleckem, S8446 ) were added at the indicated concentrations and the plates were left at 37 °C in a 5% CO 2 atmosphere for 14 days. Later, the plates were washed with PBS, fixed and stained with a crystal violet, acetic acid and methanol solution and colonies were counted.
Nuclear and cytoplasmic extract: Cells were harvest by trypsinization, washed with PBS and centrifuged at 1000×g for 5min. […] Protein level were then quantified prior to use in western blots.
BCA protein quantification: Protein quantification was done using the Pierce BCA kit assay by Thermo Fisher Scientific. […] The plate was incubated at 37°C during 30 min in the dark and the absorbance was measured by FLUOstar OPTIMA, UK/ Infinite® F50 (UK) microplate reader at 590 nm. […]
Western Blot Analysis: Cells were harvested and lysed in RIPA buffer (R0278, Sigma) with the addition of protease cocktail inhibitor (P8348, Sigma), phosphatase inhibitor cocktail 2 (P5726, Sigma) and phosphatase inhibitor cocktail 3 (P0044, Sigma) and stored at - 20°C. Protein was quantified using BCA Protein Assay kit (23225, Thermo Fisher). […]
A general note: A western blot detects proteins with antibodies after separation by electrophoresis.

Each structure is given as a SMILES string.

On to `Cc1csc2c1c(=O)n(O)c(=O)n2-c1ccccc1` [PTPD, 3-hydroxy-5-methyl-1-phenylthieno [2,3 d]pyrimidine-2,4(1H,3H)-dione], for which the “sensitivity to FEN1 inhibitor” value in the assay on POLβ KO A2780cis cells [1] is listed as “more sensitive to FEN1 inhibition”. In addition, the “DNA breaks (neutral COMET)” value in the assay on A2780cis cells is listed as “substantially increased DNA breaks”. Further, the apoptosis entry with POLβ KO A2780cis cells [2] was “apoptosis”.
In the case of `N.N.[Cl][Pt][Cl]` [cisplatin], the “nuclear level of FEN1 after cisplatin” value in assay [3] is on record as “significantly decreased”.
